Test results published in ChEMBL document CHEMBL3997817, “Filamenting temperature-sensitive mutant Z inhibitors from Glycyrrhiza glabra and their inhibitory mode of action” (Bioorg Med Chem Lett, 2017).
Values after ≈ are worked out from the molar mass of the structure shown.

Legend:
Bacillus subtilis [1] = assay: Inhibition of Bacillus subtilis N-terminal hexahistidine-tagged FtsZ GTPase activity expressed in Escherichia coli BL21 (DE3) assessed as residual activity at 20 uM after 1 hr relative to control
Bacillus subtilis [2] = assay: Inhibition of Bacillus subtilis N-terminal hexahistidine-tagged FtsZ GTPase activity expressed in Escherichia coli BL21 (DE3) assessed as residual activity at 100 uM after 1 hr relative to control
Bacillus subtilis [3] = assay: Inhibition of Bacillus subtilis N-terminal hexahistidine-tagged FtsZ GTPase activity expressed in Escherichia coli BL21 (DE3) assessed as residual activity at 200 uM after 1 hr relative to control
Escherichia coli [4] = assay: Inhibition of Escherichia coli N-terminal hexahistidine-tagged FtsZ GTPase activity expressed in Escherichia coli BL21 (DE3) assessed as residual activity at 20 uM after 1 hr relative to control
Escherichia coli [5] = assay: Inhibition of Escherichia coli N-terminal hexahistidine-tagged FtsZ GTPase activity expressed in Escherichia coli BL21 (DE3) assessed as residual activity at 100 uM after 1 hr relative to control
Bacillus subtilis [6] = assay: Inhibition of Bacillus subtilis N-terminal hexahistidine-tagged FtsZ GTPase activity expressed in Escherichia coli BL21 (DE3) at 100 uM after 1 hr relative to control
Escherichia coli [7] = assay: Inhibition of Escherichia coli N-terminal hexahistidine-tagged FtsZ GTPase activity expressed in Escherichia coli BL21 (DE3) assessed as residual activity at 200 uM after 1 hr relative to control
Bacillus subtilis [8] = assay: Antibacterial activity against Bacillus subtilis NBRC 3134 after overnight incubation by MTT assay; format: functional
[9] = Uncompetitive inhibition of Bacillus subtilis N-terminal hexahistidine-tagged FtsZ GTPase activity expressed in Escherichia coli BL21 (DE3) after 1 hr by Lineweaver-Burk plot analysis
Bacillus subtilis [10] = assay: Inhibition of Bacillus subtilis N-terminal hexahistidine-tagged FtsZ V307R mutant GTPase activity expressed in Escherichia coli BL21 (DE3) after 1 hr relative to wild type protein; conditions: concentration not given here

| Compound | Activity (Bacillus subtilis [1]) [%] | Activity (Bacillus subtilis [2]) [%] | Activity (Bacillus subtilis [3]) [%] | Activity (Escherichia coli [4]) [%] | Activity (Escherichia coli [5]) [%] | fold change (FC) (Bacillus subtilis [6]) | Activity (Escherichia coli [7]) [%] | MIC (Bacillus subtilis [8]) [µM] | inhibition (Bacillus subtilis [10]) [%] | Ki [9] [µM] |
| --- | --- | --- | --- | --- | --- | --- | --- | --- | --- | --- |
| COc1c(CC=C(C)C)c(O)cc2oc(-c3ccc(O)cc3O)cc12 | 98.1 | 55.5 | 35.3 | 99.4 | 73.5 | 0.8 to 7.7 |  |  |  |  |
| NC[C@H]1O[C@H](O[C@H]2[C@H](O)[C@@H](O[C@H]3O[C@H](CO)[C@@H](O)[C@H](N)[C@H]3O)[C@H](N)C[C@@H]2N)[C@H](O)[C@@H](O)[C@@H]1O [KANAMYCIN] |  |  |  |  |  |  |  | < 20 |  |  |
| COc1c(CC=C(C)C)c(O)cc2oc(=O)c(-c3ccc(O)cc3O)cc12 | 87.8 | 52.3 | 30.4 | 95.9 | 85.6 | 0.8 to 7.7 | 67.3 |  |  |  |
| COc1cc2oc(=O)c(-c3ccc(O)cc3O)cc2c(OC)c1CC=C(C)C [GLYCYRIN] | 74.4 | 17.5 | 17 | 103 | 87.8 | 0.8 to 7.7 | 88.6 | 40 (≈ 15.3 µg/mL) | 60 | 42.6 |

Now from value to compound, other results behind:

| Activity (Bacillus subtilis [1]) [%] | Activity (Bacillus subtilis [2]) [%] | Activity (Bacillus subtilis [3]) [%] | Activity (Escherichia coli [4]) [%] | Activity (Escherichia coli [5]) [%] | fold change (FC) (Bacillus subtilis [6]) | Activity (Escherichia coli [7]) [%] | MIC (Bacillus subtilis [8]) [µM] | inhibition (Bacillus subtilis [10]) [%] | Compound | Ki [9] [µM] |
| --- | --- | --- | --- | --- | --- | --- | --- | --- | --- | --- |
| 89.1 | 85.1 | 63.4 | 97.7 | 98.3 | 0.8 to 7.7 | 93.1 |  |  | CC(C)=CCc1cc(-c2coc3cc(O)cc(O)c3c2=O)cc(O)c1O |  |
| 97.4 | 96.8 | 90.2 | 101 | 105 | 0.8 to 7.7 | 106 |  |  | COc1c(CC=C(C)C)c(O)cc(O)c1-c1coc2cc(O)ccc2c1=O |  |
| 75.3 | 12.6 | 8 | 57.7 | 12 |  | 7.7 |  |  | CCN(CC)CCNc1nc(/C=C/c2ccc(Cl)cc2)nc2cc3ccccc3cc12 |  |
| 48.5 | 10.1 | 7.7 | 95.2 | 61.2 | 0.8 to 7.7 |  | 40 (≈ 14.2 µg/mL) | 60 | CC(C)=CCc1cc(-c2oc3cc(O)cc(O)c3c(=O)c2O)ccc1O [ISOLICOFLAVONOL] | 37.7 |
| 37.4 | 10.1 | 10.1 | 88.4 | 63.2 | 0.8 to 7.7 |  | 5 (≈ 1.77 µg/mL) | 60 | COc1cc2oc(-c3ccc(O)cc3O)cc2c(OC)c1CC=C(C)C | 30.9 |
